PMC3531425, “Low Resolution Solution Structure of HAMLET and the Importance of Its Alpha-Domains in Tumoricidal Activity” (PLoS ONE, 2012)

Legend:
A549 cells [1] = assay: Ca^2+ flux, Fluo-4 NW calcium assay, fluorometry; assay type: cell-based, human; details: for Ca^2+ flux, + oleate: peptide mixed with sodium oleate; for Ca^2+ flux, + oleate / Ca^2+ flux, - oleate: Fluo-4 fluorescence; for Ca^2+ flux, - oleate: peptide without sodium oleate; for Ca^2+ flux, substance alone: HAMLET or sodium oleate alone, Fluo-4, mean of at least two experiments
Method: (§1) To quantify the ion fluxes, fluorometry was measured in a plate reader (TECAN infinite F200, Tecan Group, Switzerland). For calcium fluxes measurement, the Fluo-4 NW calcium assay kit (Invitrogen) was used. For K^+ fluxes, the FluxOR™ potassium ion channel assay (Invitrogen) was used according to the manufacturer's instructions but component E was excluded. Briefly, cells were incubated with FluxOR™, which is a Tl^+ indicator. An increase in fluorescence signal corresponds to an influx of Tl^+, indicating opening of potassium channels, which was measured at 535 nm after excitation at 485 nm in the TECAN infinite plate reader. Given the driving force for K^+ flux across the plasma membrane this corresponds to K^+ efflux. Calcium and potassium fluxes was measured in 20 000 A549 cells plated in a 96-well plate. Sodium was measured in 100 000 Jurkat cells using the CoroNa Green Sodium Indicator (Invitrogen).

Jurkat cells = assay: Na^+ flux, CoroNa Green Sodium Indicator, fluorometry; assay type: cell-based, human; details: for Na^+ flux, + oleate: peptide mixed with sodium oleate; for Na^+ flux, + oleate / Na^+ flux, - oleate: CoroNa Green fluorescence; for Na^+ flux, - oleate: peptide without sodium oleate; for Na^+ flux, substance alone: HAMLET or sodium oleate alone, CoroNa Green, mean of at least two experiments
Method: as §1

A549 cells [2] = assay: K^+ flux, FluxOR potassium ion channel assay (Tl^+ influx), fluorometry; assay type: cell-based, human; details: for K^+ flux, + oleate: peptide mixed with sodium oleate; for K^+ flux, + oleate / K^+ flux, - oleate: FluxOR fluorescence; for K^+ flux, - oleate: peptide without sodium oleate; for K^+ flux, substance alone: HAMLET or sodium oleate alone, FluxOR, mean of at least two experiments
Method: as §1

[3] = Solubility of biotinylated peptide (remark); assay type: physicochemical; details: added at 12 µM instead of 105 uM
[4] = system: lung carcinoma or leukemia cells; assay: Tumor cell death (ATP level, PrestoBlue), cell line not given; assay type: cell-based, human; details: 3 hours
Method: A549 human lung carcinoma cell line and the Jurkat human acute T-cell leukemia cell line (obtained from ATCC, Manassas, VA, USA) were cultured in RPMI-1640 with non-essential amino acids (1∶100), 1 mM sodium pyruvate (all from PAA, Pasching, Austria), […] Gentamicin (Gibco, Paisley, UK) and 5% fetal calf serum (FCS) at 37°C, 5% CO2. Cells (5*10^5 cells/ml for A549 cells, 1*10^6 cells/ml for Jurkat cells) in suspension were incubated with either […] or peptide-oleate mixtures in serum-free RPMI-1640 at 37°C, 5% CO2. 5% FCS was added after 1 hour. Cell death was quantified by ATP level measurement (ATPlite Kit, PerkinElmer, Waltham, MA, Infinite F200, Tecan Group Ltd., Männedorf, Switzerland) and by using PrestoBlueTM Cell Viability Reagent (Invitrogen, Carlsbad, CA).

[5] = system: A549 lung carcinoma cells; assay: Cell morphology by phase holographic imaging and transmission DIC; assay type: cell-based, human
Method: For cellular uptake assays, A549 lung carcinoma cells were grown overnight on 8-well chamber slides (Nalge Nunc, Rochester, NY). Cells were incubated 1 hour with 35 μM biotinylated peptide with or without 175 μM sodium oleate (Sigma) in serum free RPMI media, followed by fixation (4% paraformaldehyde) and permeabilization (0.25% Triton X-100, 5% FCS in phosphate-buffered saline). Peptides were visualized by incubation with streptavidin-Alexa568 (Molecular Probes) and Wheat Germ Agglutinin (WGA) (Molecular Probes) was used to visualize plasma and nuclear membranes. Images were captured on a LSM510 META confocal microscope (Carl Zeiss, Jena, Germany) with pinhole settings corresponding to one airy unit. Quantification of fluorescence intensities was performed with the ImageJ software. The HoloMonitorTM M3 digital holographic microscope (Phase Holographic Imaging AB, Lund, Sweden) records 3D information of cells using interfering wave fronts induced by the exposure to a 0.8 mW HeNe laser (633 nm), resembling a Mach-Zender interferometer where the cells, placed in one of the interfering wave fronts, induce a phase difference between the two beams [26]-[28]. The interference pattern (hologram) is recorded on a digital sensor and is used to reconstruct the amplitude and phase of the object as described, [30]. […]

[6] = system: glioblastomas, papillomas and bladder cancer; details: ref [1]–[3]; cited from earlier work
Excerpt: Healthy, differentiated cells are much less sensitive to HAMLET and toxic effects on healthy tissues have not been observed in tumor models.

[7] = Small angle X-ray scattering, state in solution; assay type: physicochemical; details: 2.5 and 6.5 mg/ml in phosphate-buffered saline, 15 °C
Excerpt: Small angle X-ray scattering (SAXS) data for HAMLET were collected at the German Electron Synchrotron (DESY) of the EMBL Hamburg using the X33 SAXS camera, [19] located on a bending magnet (sector D) on the storage ring DORIS III. Pilatus 1 M pixel detector (67×420 mm^2) that operates in single photon counting mode was used. A sample - detector distance of 2.4 m which covers the range of momentum transfer 0.1<s<4.5 nm^−1 (s = 4π sin(q)/λ, where q is the scattering angle and λ = 0.15 nm is the X-ray wavelength) was utilized. The calibration of the s-axis was done by the scattering pattern of Silver-behenate salt (d-spacing 5.84 nm). For each sample measurement the scattering from the buffer was measured before and after. The average scattering for the before and after buffer measured was calculated and it is used for background subtraction for each sample. In order to assess and remove any concentration-dependant inter-particle effects for HAMLET, the protein concentrations 2.5 and 6.5 mg/ml in phosphate-buffered saline were used for the measurement. Automated sample-changing robot was used for injecting the protein as well as the buffer samples at the SAXS station X33 [20]. […]
By comparing the forward scattering from the reference solution of bovine serum albumin (BSA), the molecular mass of HAMLET was calculated as described in [18]. […]

KQFTKAELSQLLKDI [Peptide 1, 15-amino-acid peptide of α-lactalbumin library, numbered from the N-terminal]
Ca^2+ flux, + oleate (A549 cells [1]): No
Ca^2+ flux, - oleate (A549 cells [1]): No
Na^+ flux, + oleate (Jurkat cells): No
Na^+ flux, - oleate (Jurkat cells): No
K^+ flux, + oleate (A549 cells [2]): triggered K^+ fluxes and Yes
K^+ flux, - oleate (A549 cells [2]): triggered K^+ fluxes and Yes

FHTSGYDTQAIVENN [Peptide 4, 15-amino-acid peptide of α-lactalbumin library]
Ca^2+ flux, + oleate (A549 cells [1]): No
Ca^2+ flux, - oleate (A549 cells [1]): No
Na^+ flux, + oleate (Jurkat cells): No
Na^+ flux, - oleate (Jurkat cells): No
K^+ flux, + oleate (A549 cells [2]): No
K^+ flux, - oleate (A549 cells [2]): No

IVENNESTEYGLFQI [Peptide 5, 15-amino-acid peptide of α-lactalbumin library]
Ca^2+ flux, + oleate (A549 cells [1]): No
Ca^2+ flux, - oleate (A549 cells [1]): No
Na^+ flux, + oleate (Jurkat cells): No
Na^+ flux, - oleate (Jurkat cells): No
K^+ flux, + oleate (A549 cells [2]): No
K^+ flux, - oleate (A549 cells [2]): No

AKSSQVPQSRNIADI [Peptide 7, 15-amino-acid peptide of α-lactalbumin library]
Ca^2+ flux, + oleate (A549 cells [1]): No
Ca^2+ flux, - oleate (A549 cells [1]): No
Na^+ flux, + oleate (Jurkat cells): No
Na^+ flux, - oleate (Jurkat cells): No
K^+ flux, + oleate (A549 cells [2]): No
K^+ flux, - oleate (A549 cells [2]): No

GLFQISNKLWAKSSQ [Peptide 6, 15-amino-acid peptide of α-lactalbumin library]
Ca^2+ flux, + oleate (A549 cells [1]): weaker Ca^2+ flux
Ca^2+ flux, - oleate (A549 cells [1]): No
Na^+ flux, + oleate (Jurkat cells): Weak Na^+ fluxes
Solubility [3]: lower solubility
K^+ flux, + oleate (A549 cells [2]): No
K^+ flux, - oleate (A549 cells [2]): No

IDYWLAHKALATEKL [Peptide 11, 15-amino-acid peptide of α-lactalbumin library]
Ca^2+ flux, + oleate (A549 cells [1]): increased Ca^2+ fluxes and Yes
Ca^2+ flux, - oleate (A549 cells [1]): increased Ca^2+ fluxes and Yes
Na^+ flux, + oleate (Jurkat cells): No
Na^+ flux, - oleate (Jurkat cells): No
K^+ flux, + oleate (A549 cells [2]): triggered K^+ fluxes and Yes
K^+ flux, - oleate (A549 cells [2]): triggered K^+ fluxes and Yes

NIADISADKFLDDDI [Peptide 8, 15-amino-acid peptide of α-lactalbumin library]
Ca^2+ flux, + oleate (A549 cells [1]): No
Ca^2+ flux, - oleate (A549 cells [1]): No
Na^+ flux, + oleate (Jurkat cells): No
Na^+ flux, - oleate (Jurkat cells): No
K^+ flux, + oleate (A549 cells [2]): No
K^+ flux, - oleate (A549 cells [2]): No

LLKDIDGYGGIALPE [Peptide 2, 15-amino-acid peptide of α-lactalbumin library]
Ca^2+ flux, + oleate (A549 cells [1]): No
Ca^2+ flux, - oleate (A549 cells [1]): No
Na^+ flux, + oleate (Jurkat cells): No
Na^+ flux, - oleate (Jurkat cells): No
K^+ flux, + oleate (A549 cells [2]): No
K^+ flux, - oleate (A549 cells [2]): No

CCCCCCCC/C=C\CCCCCCCC(=O)O [Sodium oleate, sodium oleate, reference compound]
Ca^2+ flux, substance alone (A549 cells [1]): not observed
Tumor cell killing in the absence of peptide ([4]; sodium oleate alone): did not kill the tumor cells
Na^+ flux, substance alone (Jurkat cells): not observed
Cell morphology by transmission light DIC, oleate-free peptide or oleate alone ([5]; A549, 1 h): remain as flat and extended
K^+ flux, substance alone (A549 cells [2]): significant K^+ fluxes

AAKKILDIKGIDYWL [Peptide 10, 15-amino-acid peptide of α-lactalbumin library]
Ca^2+ flux, + oleate (A549 cells [1]): weaker Ca^2+ flux
Ca^2+ flux, - oleate (A549 cells [1]): weaker Ca^2+ flux
Na^+ flux, + oleate (Jurkat cells): Weak Na^+ fluxes
K^+ flux, + oleate (A549 cells [2]): No
K^+ flux, - oleate (A549 cells [2]): No

ATEKLEQWLAEKL [Peptide 12, C-terminal peptide of α-lactalbumin library]
Ca^2+ flux, + oleate (A549 cells [1]): No
Ca^2+ flux, - oleate (A549 cells [1]): No
Na^+ flux, + oleate (Jurkat cells): No
Na^+ flux, - oleate (Jurkat cells): No
K^+ flux, + oleate (A549 cells [2]): No
K^+ flux, - oleate (A549 cells [2]): No

LDDDITDDIMAAKKI [Peptide 9, 15-amino-acid peptide of α-lactalbumin library]
Ca^2+ flux, + oleate (A549 cells [1]): No
Ca^2+ flux, - oleate (A549 cells [1]): No
Na^+ flux, + oleate (Jurkat cells): No
Na^+ flux, - oleate (Jurkat cells): No
K^+ flux, + oleate (A549 cells [2]): No
K^+ flux, - oleate (A549 cells [2]): No

IALPELIATMFHTSG [Peptide 3, 15-amino-acid peptide of α-lactalbumin library]
Ca^2+ flux, + oleate (A549 cells [1]): No
Ca^2+ flux, - oleate (A549 cells [1]): No
Na^+ flux, + oleate (Jurkat cells): No
Na^+ flux, - oleate (Jurkat cells): No
K^+ flux, + oleate (A549 cells [2]): No
K^+ flux, - oleate (A549 cells [2]): No

B1: HAMLET (protein)
chain: KQFTKCELSQLLKDIDGYGGIALPELICTMFHTSGYDTQAIVENNESTEYGLFQISNKLWCKSSQVPQSRNICDISCDKFLDDDITDDIMCAKKILDIKGIDYWLAHKALCTEKLEQWLCEKL
Ca^2+ flux, substance alone (A549 cells [1]): rapid and sustained
Reduction of cell viability ([4]; HAMLET (positive control) or peptide mixed with sodium oleate, cell line not given): 90%
Na^+ flux, substance alone (Jurkat cells): Na^+ fluxes
Morphological change by holographic imaging ([5]; adherent A549 cells, HAMLET or peptide-oleate mixture, images every 15 minutes): increase in cellular optical thickness and a reduction in adherent surface area after 30 minutes, followed by cell detachment at later time points
K^+ flux, substance alone (A549 cells [2]): rapid and sustained
Therapeutic efficacy in vivo [6]: therapeutic efficacy
Oligomeric state in solution ([7]; SAXS forward scattering vs BSA reference): monomeric
Protein aggregation (Guinier plot) ([7]; SAXS): no protein aggregation
